PMC9171587, “Novel α-Amylase Inhibitor Hemi-Pyocyanin Produced by Microbial Conversion of Chitinous Discards” (Marine Drugs, 2022)

Target: T1, Porcine pancreatic α-amylase (Sus scrofa, UniProt P00690)
T1 construct: gene AMY2
T1 sequence (P00690 16-511): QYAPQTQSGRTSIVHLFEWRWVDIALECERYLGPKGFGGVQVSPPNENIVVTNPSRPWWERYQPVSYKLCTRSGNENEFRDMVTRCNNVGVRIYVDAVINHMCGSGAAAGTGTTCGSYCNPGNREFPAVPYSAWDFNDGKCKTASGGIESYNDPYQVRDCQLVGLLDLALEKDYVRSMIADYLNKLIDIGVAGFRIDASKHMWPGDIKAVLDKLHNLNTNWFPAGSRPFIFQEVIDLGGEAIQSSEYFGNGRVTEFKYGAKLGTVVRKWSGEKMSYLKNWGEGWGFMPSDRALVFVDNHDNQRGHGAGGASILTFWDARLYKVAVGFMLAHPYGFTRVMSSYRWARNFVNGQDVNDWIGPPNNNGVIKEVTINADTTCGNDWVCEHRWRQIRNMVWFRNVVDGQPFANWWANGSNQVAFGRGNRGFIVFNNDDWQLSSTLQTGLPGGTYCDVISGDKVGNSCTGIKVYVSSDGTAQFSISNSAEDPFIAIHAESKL
Assay: starch hydrolysis assay (Bernfeld, reducing sugar at OD540) with commercial enzyme type VI-B
Format: biochemical

Oc1cccc2nc3ccccc3nc12 [SF-1, hemi-pyocyanin]
IC50: 15.8 µM
